Reference: patent publication US20250282768A1 (Janssen Pharmaceutica NV, priority 2022, published 2025)

Test system: p-IKKa levels in L363 (NIK translocated multiple myeloma) cells
Assay: Assay 2: Effect of compounds on p-IKKa levels in L363 (NIK translocated multiple myeloma) cells
Type: cell-based
Settings: Homo sapiens, L-363, 6 h, read-out: Assay 2 IC50 (nM), p-IKKa (Ser 176/180) in BAFF stimulated L363 cells with MG132, 6 h; average if tested more than once
Summary of the method: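 Read-out is p-IKKa Ser176/180 by AlphaLISA SureFire in lysates. Cells were BAFF-primed (250 ng/ml) overnight or left unstimulated, then exposed 6 h at 37 °C to compound with MG132 (10 μM), 0.3% DMSO. IC50 from sigmoidal curve fit, normalized between stimulated and unstimulated controls.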

SMILES	IC50
C[C@H](Nc1nccc(-c2cccc(-c3cc([C@]4(O)CCN(C)C4=O)on3)n2)n1)C(=O)N1CCC(F)(F)C1 [Example 174, (R)-3-(3-(6-(2-(((S)-1-(3,3-Difluoropyrrolidin-1-yl)-1-oxopropan-2-yl)amino)pyrimidin-4-yl)pyridin-2-yl)isoxazol-5-yl)-3-hydroxy-1-methylpyrrolidin-2-one]	50 to 500 nM
CN1CC[C@@](O)(c2cc(-c3cccc(-c4ccnc(NC5COCC(F)(F)C5)n4)n3)no2)C1=O (mixture of isomers) [Example 459, (3R)-3-(3-(6-(2-((5,5-Difluorotetrahydro-2H-pyran-3-yl)amino)pyrimidin-4-yl)pyridin-2-yl)isoxazol-5-yl)-3-hydroxy-1-methylpyrrolidin-2-one]	50 to 500 nM
CC(C)[C@@H](Nc1nccc(-c2cccc(-c3cc([C@]4(O)CCN(C)C4=O)on3)n2)n1)c1cnn(C)c1 (single isomer, unassigned) [Example 162]	> 500 nM
CN1CC[C@@](O)(c2cc(-c3cccc(-c4ccnc(Nc5cnn(C)c5Cl)n4)n3)no2)C1=O [Example 297, (R)-3-(3-(6-(2-((5-Chloro-1-methyl-1H-pyrazol-4-yl)amino)pyrimidin-4-yl)pyridin-2-yl)isoxazol-5-yl)-3-hydroxy-1-methylpyrrolidin-2-one]	< 50 nM
CCn1ncc(Nc2nccc(-c3cccc(-c4cc([C@]5(O)CCN(C)C5=O)on4)n3)n2)c1C [Example 217, (R)-3-(3-(6-(2-((1-Ethyl-5-methyl-1H-pyrazol-4-yl)amino)pyrimidin-4-yl)pyridin-2-yl)isoazol-5-yl)-3-hydroxy-1-methylpyrrolidin-2-one]	< 50 nM
COCc1cc(-c2ccnc(Nc3cnn(C)c3)n2)nc(-n2cc([C@]3(O)CCN(C)C3=O)nn2)c1 [Example 138, (R)-3-Hydroxy-3-(1-(4-(methoxymethyl)-6-(2-((1-methyl-1H-pyrazol-4-yl)amino)pyrimidin-4-yl)pyridin-2-yl)-1H-1,2,3-triazol-4-yl)-1-methylpyrrolidin-2-one]	50 to 500 nM
Cc1nn(C(F)F)cc1Nc1nccc(-c2cccc(-c3cc([C@]4(O)CCN(C)C4=O)on3)n2)n1 [Example 211, (R)-3-(3-(6-(2-((1-(Difluoromethyl)-3-methyl-1H-pyrazol-4-yl)amino)pyrimidin-4-yl)pyridin-2-yl)isoxazol-5-yl)-3-hydroxy-1-methylpyrrolidin-2-one]	< 50 nM
Cc1nccc(Nc2nccc(-c3cccc(-c4cc([C@]5(O)CCN(C)C5=O)on4)n3)n2)c1C [Example 128, (R)-3-(3-(6-(2-((2,3-Dimethylpyridin-4-yl)amino)pyrimidin-4-yl)pyridin-2-yl)isoxazol-5-yl)-3-hydroxy-1-methylpyrrolidin-2-one]	< 50 nM
CN(C)C[C@@H](Nc1nccc(-c2cccc(-c3cc([C@]4(O)CCN(C)C4=O)on3)n2)n1)c1ccccc1 [Example 397, (R)-3-(3-(6-(2-(((S)-2-(Dimethylamino)-1-phenylethyl)amino)pyrimidin-4-yl)pyridin-2-yl)isoxazol-5-yl)-3-hydroxy-1-methylpyrrolidin-2-one]	> 500 nM
CO[C@H](C)CNc1nccc(-c2cccc(-c3cc([C@]4(O)CCN(C)C4=O)on3)n2)n1 [Example 356, (R)-3-Hydroxy-3-(3-(6-(2-(((R)-2-methoxypropyl)amino)pyrimidin-4-yl)pyridin-2-yl)isoxazol-5-yl)-1-methylpyrrolidin-2-one]	50 to 500 nM
C[C@@H](CF)Nc1nccc(-c2cccc(-c3cc([C@]4(O)CCN(C)C4=O)on3)n2)n1 [Example 348, (R)-3-(3-(6-(2-(((S)-1-Fluoropropan-2-yl)amino)pyrimidin-4-yl)pyridin-2-yl)isoxazol-5-yl)-3-hydroxy-1-methylpyrrolidin-2-one]	50 to 500 nM
C[C@H](Nc1nccc(-c2cccc(-c3cc([C@]4(O)CCN(C)C4=O)on3)n2)n1)C(=O)N(C)c1ccccc1 [Example 181, (S)-2-((4-(6-(5-((R)-3-Hydroxy-1-methyl-2-oxopyrrolidin-3-yl)isoxazol-3-yl)pyridin-2-yl)pyrimidin-2-yl)amino)-N-methyl-N-phenylpropanamide]	> 500 nM
C[C@@H]1C[C@@](O)(c2cc(-c3cccc(-c4ccnc(Nc5cnn(C)c5)n4)n3)no2)C(=O)N1C [Example 286, (3R,5R)-3-Hydroxy-1,5-dimethyl-3-(3-(6-(2-((1-methyl-1H-pyrazol-4-yl)amino)pyrimidin-4-yl)pyridin-2-yl)isoxazol-5-yl)pyrrolidin-2-one]	> 500 nM
CN1CC[C@@](O)(c2cc(-c3cccc(-c4ccnc(NCCn5ccc(N)n5)n4)n3)no2)C1=O [Example 123, (R)-3-(3-(6-(2-((2-(3-Amino-1H-pyrazol-1-yl)ethyl)amino)pyrimidin-4-yl)pyridin-2-yl)isoxazol-5-yl)-3-hydroxy-1-methylpyrrolidin-2-one]	> 500 nM
CN1CC[C@@](O)(c2cc(-c3cccc(-c4ccnc(Nc5ccn(CCF)n5)n4)n3)no2)C1=O [Example 60, (R)-3-(3-(6-(2-((1-(2-Fluoroethyl)-1H-pyrazol-3-yl)amino)pyrimidin-4-yl)pyridin-2-yl)isoxazol-5-yl)-3-hydroxy-1-methylpyrrolidin-2-one]	< 50 nM
CCn1cc(Nc2nccc(-c3cccc(-n4cc([C@]5(O)CCN(C)C5=O)nn4)n3)n2)cn1 [Example 335, (R)-3-(1-(6-(2-((1-Ethyl-1H-pyrazol-4-yl)amino)pyrimidin-4-yl)pyridin-2-yl)-1H-1,2,3-triazol-4-yl)-3-hydroxy-1-methylpyrrolidin-2-one]	< 50 nM
CN1C(=O)[C@](O)(c2cc(-c3cccc(-c4ccnc(Nc5cnn(C)c5Cl)n4)n3)no2)[C@H]2C[C@H]21 [Example 287, (1R,4R,5S)-4-(3-(6-(2-((5-Chloro-1-methyl-1H-pyrazol-4-yl)amino)pyrimidin-4-yl)pyridin-2-yl)isoxazol-5-yl)-4-hydroxy-2-methyl-2-azabicyclo[3.1.0]hexan-3-one]	50 to 500 nM
CN1CC[C@@](O)(c2cc(-c3cccc(-c4ccnc(Nc5cn(CCF)cn5)n4)n3)no2)C1=O [Example 399, (R)-3-(3-(6-(2-((1-(2-Fluoroethyl)-1H-imidazol-4-yl)amino)pyrimidin-4-yl)pyridin-2-yl)isoxazol-5-yl)-3-hydroxy-1-methylpyrrolidin-2-one]	< 50 nM
CN1CC[C@@](O)(c2cc(-c3cccc(-c4ccnc(N[C@@H]5CCSC5)n4)n3)no2)C1=O (single isomer, unassigned) [Example 458, (R)-3-Hydroxy-1-methyl-3-(3-(6-(2-(((*R)-tetrahydrothiophen-3-yl)amino)pyrimidin-4-yl)pyridin-2-yl)isoxazol-5-yl)pyrrolidin-2-one]	50 to 500 nM
CN1CC[C@@](O)(c2cc(-c3cccc(-c4ccnc(Nc5cnn([C@@H]6CCN(C7COC7)C6)c5)n4)n3)no2)C1=O (single isomer, unassigned) [Example 141]	< 50 nM
CN1CC[C@@](O)(c2cc(-c3cccc(-c4ccnc(Nc5ccon5)n4)n3)no2)C1=O [Example 186, (R)-3-Hydroxy-3-(3-(6-(2-(isoxazol-3-ylamino)pyrimidin-4-yl)pyridin-2-yl)isoxazol-5-yl)-1-methylpyrrolidin-2-one]	50 to 500 nM
CN1CC[C@@](O)(c2cc(-c3cccc(-c4ccnc(Nc5cc(N)n(C)n5)n4)c3)no2)C1=O [Example 414, (R)-3-(3-(3-(2-((5-Amino-1-methyl-1H-pyrazol-3-yl)amino)pyrimidin-4-yl)phenyl)isoxazol-5-yl)-3-hydroxy-1-methylpyrrolidin-2-one]	> 500 nM
CN1CC[C@@](O)(c2cc(-c3cccc(-c4ccnc(Nc5cnn(C6COC6)c5)n4)n3)no2)C1=O [Example 264, (R)-3-Hydroxy-1-methyl-3-(3-(6-(2-((1-(oxetan-3-yl)-1H-pyrazol-4-yl)amino)pyrimidin-4-yl)pyridin-2-yl)isoxazol-5-yl)pyrrolidin-2-one]	< 50 nM
C[C@H](Nc1nccc(-c2cccc(-c3cc([C@]4(O)CCN(C)C4=O)on3)n2)n1)c1cn2ccccc2n1 [Example 394, (R)-3-Hydroxy-3-(3-(6-(2-(((S)-1-(imidazo[1,2-a]pyridin-2-yl)ethyl)amino)pyrimidin-4-yl)pyridin-2-yl)isoxazol-5-yl)-1-methylpyrrolidin-2-one]	> 500 nM
COc1cn(C)nc1C(C)Nc1nccc(-c2cccc(-c3cc([C@]4(O)CCN(C)C4=O)on3)n2)n1 (stereo partly drawn) [Example 392, (3R)-3-Hydroxy-3-(3-(6-(2-((1-(4-methoxy-1-methyl-1H-pyrazol-3-yl)ethyl)amino)pyrimidin-4-yl)pyridin-2-yl)isoxazol-5-yl)-1-methylpyrrolidin-2-one]	> 500 nM
CN1CC[C@@](O)(c2cc(-c3cccc(-c4ccnc(Nc5cc6n(n5)CC(C)(C)OC6)n4)n3)no2)C1=O [Example 192, (R)-3-(3-(6-(2-((6,6-Dimethyl-6,7-dihydro-4H-pyrazolo[5,1-c][1,4]oxazin-2-yl)amino)pyrimidin-4-yl)pyridin-2-yl)isoxazol-5-yl)-3-hydroxy-1-methylpyrrolidin-2-one]	< 50 nM
C[C@@H](Nc1nccc(-c2cccc(-c3cc([C@]4(O)CCN(C)C4=O)on3)n2)n1)c1cnnn1C [Example 383, (R)-3-Hydroxy-1-methyl-3-(3-(6-(2-(((R)-1-(1-methyl-1H-1,2,3-triazol-5-yl)ethyl)amino)pyrimidin-4-yl)pyridin-2-yl)isoxazol-5-yl)pyrrolidin-2-one]	50 to 500 nM
CN1CC(F)(F)[C@@](O)(c2cc(-c3cccc(-c4ccnc(Nc5cnn6c5CCC6)n4)n3)no2)C1=O [Example 243, (R)-3-(3-(6-(2-((5,6-Dihydro-4H-pyrrolo[1,2-b]pyrazol-3-yl)amino)pyrimidin-4-yl)pyridin-2-yl)isoxazol-5-yl)-4,4-difluoro-3-hydroxy-1-methylpyrrolidin-2-one]	< 50 nM
C[C@H](Nc1nccc(-c2cccc(-c3cc([C@]4(O)CCN(C)C4=O)on3)n2)n1)c1ccnn1C (single isomer, unassigned) [Example 68]	50 to 500 nM
